Laboratory results as given in US20250346593A1, “IMIDAZO(1,2-1)PYRIDINE DERIVATIVES AS RIPK2 INHIBITORS” (Interline Therapeutics, Inc., priority 2022, published 2025).
Read-outs that look alike come from different tables or passages of the source.

Assays:
[1] = system: NF-κB pathway (SEAP) in THP1-Dual cells; assay: THP-1 Dual cell SEAP assay (L18-MDP stimulated); assay type: cell-based; conditions: read-out: NFkB THP1 IC50
[2] = target: GST-RIPK2 fusion protein (human RIPK2 amino acids 1-310) (Homo sapiens (Human), UniProt O43353); assay: RIPK2 binding competition assay (TR-FRET, Tracer 199)
[3] = read-out: RIPK2 IC50, RIPK2 binding competition assay

GST-RIPK2 fusion protein (human RIPK2 amino acids 1-310), sequence (O43353 1-310): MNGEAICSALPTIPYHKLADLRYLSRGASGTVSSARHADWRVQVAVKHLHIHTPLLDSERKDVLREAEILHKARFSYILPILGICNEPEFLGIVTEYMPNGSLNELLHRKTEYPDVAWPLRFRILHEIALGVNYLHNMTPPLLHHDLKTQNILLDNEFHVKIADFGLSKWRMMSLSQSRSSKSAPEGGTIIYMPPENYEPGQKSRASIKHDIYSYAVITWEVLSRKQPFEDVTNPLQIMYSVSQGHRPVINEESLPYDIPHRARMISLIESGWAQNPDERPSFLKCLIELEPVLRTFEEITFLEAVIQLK

Row | IC50 [1] [nM] | Structure (SMILES) | IC50 ([1]; Homo sapiens, THP1-Dual) [nM] | IC50 [2] [nM] | IC50 [2, 3] [nM]
1 |  | COc1cc2ncc(-c3csc(N)n3)n2cc1S(=O)(=O)C(C)(C)C [Example 165, 4-(6-(tert-butylsulfonyl)-7-methoxyimidazo[1,2-a]pyridin-3-yl)thiazol-2-amine] | 250 to 1000 | 2.5 to 20 | 
2 |  | COc1cc2ncc(-c3cnc(N)s3)n2cc1S(=O)(=O)C(C)(C)C [Example 166, 5-(6-(tert-butylsulfonyl)-7-methoxyimidazo[1,2-a]pyridin-3-yl)thiazol-2-amine] | > 1000 |  | > 20
3 |  | COc1cc2ncc(-c3cc(F)c(N)nc3O)n2cc1S(=O)(=O)C(C)(C)C [Example 167, 6-amino-3-(6-(tert-butylsulfonyl)-7-methoxyimidazo[1,2-a]pyridin-3-yl)-5-fluoropyridin-2-ol] | > 1000 |  | > 20
4 |  | COc1ccc(CNc2cc(-c3cnc4ccc(S(=O)(=O)C(C)(C)C)cn34)cc(F)n2)cc1 [Example 168, 4-(6-(tert-butylsulfonyl)imidazo[1,2-a]pyridin-3-yl)-6-fluoro-N-(4-methoxybenzyl)pyridin-2-amine] | 250 to 1000 | 1 to 2.5 | 
5 |  | CC(C)(C)S(=O)(=O)c1ccc2ncc(-c3cc(F)nc(NCCC4(O)CCC4)c3)n2c1 [Example 171, 1-(2-((4-(6-(tert-butylsulfonyl)imidazo [1,2-a]pyridin-3-yl)-6-fluoropyridin-2-yl)amino)ethyl)cyclo-butan-1-ol] | < 50 | 1 to 2.5 | 
6 |  | CC(C)(O)CCNc1cc(-c2cnc3ccc(S(=O)(=O)C(C)(C)C)cn23)cc(F)n1 [Example 174, 4-((4-(6-(tert-butylsulfonyl)imidazo [1,2-a]pyridin-3-yl)-6-fluoropyridin-2-yl)amino)-2-methylbutan-2-ol] | 50 to 250 | 2.5 to 20 | 
7 |  | COc1cc2ncc(-c3cc(F)nc(NCc4ccccc4)c3)n2cc1S(=O)(=O)C(C)(C)C [Example 175, N-benzyl-4-(6-(tert-butylsulfonyl)-7-methoxyimidazo[1,2-a]pyridin-3-yl)-6-fluoropyridin-2-amine] | < 50 | < 1 | 
8 |  | COc1cc2ncc(-c3cc(F)nc(NCCC(C)(C)OC)c3)n2cc1S(=O)(=O)C(C)(C)C [Example 176, 4-(6-(tert-butylsulfonyl)-7-methoxyimidazo[1,2-a]pyridin-3-yl)-6-fluoro-N-(3-methoxy-3-methylbutyl)pyridin-2-amine] | < 50 |  | < 1
9 |  | COc1cc2ncc(-c3cc(F)nc(NC(C)C)c3)n2cc1S(=O)(=O)C(C)(C)C [Example 178, 4-(6-(tert-butylsulfonyl)-7-methoxyimidazo[1,2-a]pyridin-3-yl)-6-fluoro-N-isopropylpyridin-2-amine] | < 50 |  | < 1
10 |  | CNc1cc(-c2cnc3cc(OC)c(S(=O)(=O)C(C)(C)C)cn23)cc(F)n1 [Example 179, 4-(6-(tert-butylsulfonyl)-7-methoxyimidazo[1,2-a]pyridin-3-yl)-6-fluoro-N-methylpyridin-2-amine] | < 50 |  | < 1
11 |  | COc1cc2ncc(-c3cc(F)nc(NC4CCC4)c3)n2cc1S(=O)(=O)C(C)(C)C [Example 180, 4-(6-(tert-butylsulfonyl)-7-methoxyimidazo[1,2-a]pyridin-3-yl)-N-cyclobutyl-6-fluoropyridin-2-amine] | 50 to 250 |  | < 1
12 |  | CCCNc1cc(-c2cnc3cc(OC)c(S(=O)(=O)C(C)(C)C)cn23)cc(F)n1 [Example 181, 4-(6-(tert-butylsulfonyl)-7-methoxyimidazo[1,2-a]pyridin-3-yl)-6-fluoro-N-propylpyridin-2-amine] | < 50 |  | < 1
13 |  | COc1cc2ncc(-c3cc(F)nc(NCCCC(C)(C)O)c3)n2cc1S(=O)(=O)C(C)(C)C [Example 182, 5-((4-(6-(tert-butylsulfonyl)-7-methoxyimidazo[1,2-a]pyridin-3-yl)-6-fluoropyridin-2-yl)amino)-2-methylpentan-2-ol] | < 50 |  | < 1
14 |  | COc1cc2ncc(-c3cc(F)nc(NCCCO)c3)n2cc1S(=O)(=O)C(C)(C)C [Example 183, 3-((4-(6-(tert-butylsulfonyl)-7-methoxyimidazo[1,2-a]pyridin-3-yl)-6-fluoropyridin-2-yl)amino)propan-1-ol] | < 50 |  | < 1
15 |  | COc1cc2ncc(-c3cc(F)nc(NCc4ccc(=O)[nH]c4)c3)n2cc1S(=O)(=O)C(C)(C)C [Example 184, 5-(((4-(6-(tert-butylsulfonyl)-7-methoxyimidazo[1,2-a]pyridin-3-yl)-6-fluoropyridin-2-yl)amino)methyl) pyridin-2(1H)-one] | 50 to 250 |  | < 1
16 |  | COc1cc2ncc(-c3cc(F)nc(NCC4CCC(=O)NC4)c3)n2cc1S(=O)(=O)C(C)(C)C (centres unmarked) [Example 185, 5-(((4-(6-(tert-butylsulfonyl)-7-methoxyimidazo[1,2-a]pyridin-3-yl)-6-fluoropyridin-2-yl)amino)methyl) piperidin-2-one] | < 50 |  | < 1

Row | IC50 [1] [nM] | Structure (SMILES) | IC50 ([1]; Homo sapiens, THP1-Dual) [nM] | IC50 [2] [nM] | IC50 [2, 3] [nM]
17 |  | COc1cc2ncc(-c3cc(F)nc(N(C)C)c3)n2cc1S(=O)(=O)C(C)(C)C [Example 186, 4-(6-(tert-butylsulfonyl)-7-methoxyimidazo[1,2-a]pyridin-3-yl)-6-fluoro-N,N-dimethylpyridin-2-amine] | < 50 |  | < 1
18 |  | COc1cc2ncc(-c3cc(F)nc(NCC4CCNC(=O)C4)c3)n2cc1S(=O)(=O)C(C)(C)C (centres unmarked) [Example 188, 4-(((4-(6-(tert-butylsulfonyl)-7-methoxyimidazo[1,2-a]pyridin-3-yl)-6-fluoropyridin-2-yl)amino)methyl) piperidin-2-one] | < 50 |  | < 1
19 |  | COc1cc2ncc(-c3cc(F)nc(N[C@H]4C[C@H](O)C4)c3)n2cc1S(=O)(=O)C(C)(C)C [Example 193, (1r,3r)-3-((4-(6-(tert-butylsulfonyl)-7-methoxyimidazo[1,2-a]pyridin-3-yl)-6-fluoropyridin-2-yl)amino)cyclobutan-1-ol] | < 50 |  | < 1
20 |  | COc1cc2ncc(-c3cc(F)nc(NCCCN)c3)n2cc1S(=O)(=O)C(C)(C)C [Example 194, N1-(4-(6-(tert-butylsulfonyl)-7-methoxyimidazo[1,2-a]pyridin-3-yl)-6-fluoropyridin-2-yl)propane-1,3-diamine] | < 50 |  | < 1
21 |  | COc1cc2ncc(-c3cc(F)nc(NC[C@@H](O)CO)c3)n2cc1S(=O)(=O)C(C)(C)C [Example 195, (R)-3-((4-(6-(tert-butylsulfonyl)-7-methoxyimidazo[1,2-a]pyridin-3-yl)-6-fluoropyridin-2-yl)amino)propane-1,2-diol] | < 50 |  | < 1
22 |  | COc1cc2ncc(-c3cc(F)nc(NCc4ccn(C)c(=O)c4)c3)n2cc1S(=O)(=O)C(C)(C)C [Example 196, 4-(((4-(6-(tert-butylsulfonyl)-7-methoxyimidazo[1,2-a]pyridin-3-yl)-6-fluoropyridin-2-yl)amino)methyl)-1-methylpyridin-2(1H)-one] | < 50 | 1 to 2.5 | 
23 |  | COc1cc2ncc(-c3cc(F)nc(NCCC4(O)CC4)c3)n2cc1S(=O)(=O)C(C)(C)C [Example 198, 1-(2-((4-(6-(tert-butylsulfonyl)-7-methoxyimidazo[1,2-a]pyridin-3-yl)-6-fluoropyridin-2-yl)amino)ethyl)cyclo-propan-1-ol] | < 50 |  | < 1
24 |  | COc1cc2ncc(-c3cc(F)nc(NCc4cc[nH]c(=O)c4)c3)n2cc1S(=O)(=O)C(C)(C)C [Example 199, 4-(((4-(6-(tert-butylsulfonyl)-7-methoxyimidazo[1,2-a]pyridin-3-yl)-6-fluoropyridin-2-yl)amino)methyl) pyridin-2(1H)-one] | 50 to 250 | 1 to 2.5 | 
25 |  | COc1cc2ncc(-c3cc(F)nc(NCC4CCN(C)C(=O)C4)c3)n2cc1S(=O)(=O)C(C)(C)C (centres unmarked) [Example 200, 4-(((4-(6-(tert-butylsulfonyl)-7-methoxyimidazo[1,2-a]pyridin-3-yl)-6-fluoropyridin-2-yl)amino)methyl)-1-methylpiperidin-2-one] | < 50 | 1 to 2.5 | 
26 |  | COc1cc2ncc(-c3cc(F)nc(NCC4(CO)CC4)c3)n2cc1S(=O)(=O)C(C)(C)C [Example 201, (1-(((4-(6-(tert-butylsulfonyl)-7-methoxyimidazo[1,2-a]pyridin-3-yl)-6-fluoropyridin-2-yl)amino)methyl)cyclo-propyl)methanol] | < 50 | 1 to 2.5 | 
27 |  | COc1cc2ncc(-c3cc(F)nc(NCCO)c3)n2cc1S(=O)(=O)C(C)(C)C [Example 202, 2-((4-(6-(tert-butylsulfonyl)-7-methoxyimidazo[1,2-a]pyridin-3-yl)-6-fluoropyridin-2-yl)amino)ethan-1-ol] | < 50 | 1 to 2.5 | 
28 |  | COc1cc2ncc(-c3cc(F)nc(NC[C@H](O)CO)c3)n2cc1S(=O)(=O)C(C)(C)C [Example 203, (S)-3-((4-(6-(tert-butylsulfonyl)-7-methoxyimidazo[1,2-a]pyridin-3-yl)-6-fluoropyridin-2-yl)amino)propane-1,2-diol] | 50 to 250 | 1 to 2.5 | 
29 | < 50 | COc1cc2ncc(-c3cc(F)nc(N[C@H]4CC[C@@H](O)CC4)c3)n2cc1S(=O)(=O)C(C)(C)C [Example 206, (1s,4s)-4-((4-(6-(tert-butylsulfonyl)-7-methoxyimidazo[1,2-a]pyridin-3-yl)-6-fluoropyridin-2-yl)amino)cyclohexan-1-ol] |  | 1 to 2.5 | 
30 |  | COc1cc2ncc(-c3cc(F)nc(N4CCC(O)CC4)c3)n2cc1S(=O)(=O)C(C)(C)C [Example 207, 1-(4-(6-(tert-butylsulfonyl)-7-methoxyimidazo[1,2-a]pyridin-3-yl)-6-fluoropyridin-2-yl)piperidin-4-ol] | < 50 | 1 to 2.5 | 
31 |  | COc1cc2ncc(-c3cc(F)nc(NCC4(O)CC4)c3)n2cc1S(=O)(=O)C(C)(C)C [Example 208, 1-(((4-(6-(tert-butylsulfonyl)-7-methoxyimidazo[1,2-a]pyridin-3-yl)-6-fluoropyridin-2-yl)amino)methyl) cyclopropan-1-ol] | < 50 | 1 to 2.5 | 
